Patent publication US20220275403A1, “Methods And Compositions For Enhancing AAV-Mediated Homologous Recombination Using Ribonucleotide Reductase Inhibitors” (The Board of Trustees of the Leland Stanford Junior …, priority 2019, published 2022)
Entries after “also recorded” stand apart in the source; their conditions may differ.

Legend:
P Ser139 γH2AX = P Ser139 γH2AX DNA damage response in mouse liver (IHC, Western blot)
[1] = test system: genomic albumin (Alb) locus, mouse liver; assay: In vivo gene targeting with rAAV8 Alb-P2A-hF9 vector, serum hF9 by ELISA; conditions: for serum hF9 protein levels: vs vehicle; for serum hF9 levels: 2 months after AAV injection; for hF9 expression (plasma/serum hF9 levels): mice, drug ip three sequential days, rAAV8 Alb/F9 on first day, vs controls
Description: FIG. 5 Depicts results from in vivo delivery of AAV-based HR in mice. A schematic depicts the injection schedule. rAAV was used to deliver a donor sequence encoding human coagulation factor IX (hF9) into the genomic Albumin (Alb) locus. Plasma hF9 expression in the mouse liver was measured as an assay to detect integration and expression of the integrated donor sequence. […] Experimental plan and time schedule: each drug was given three sequential days by ip injection and AAV was injected at first day with 1e11 vector genome (vg)/g body weight. Serum samples were collected at each time point and hF9 levels were measured by ELISA. Body weight of each mouse were measured to monitor the toxic effect of each drug.
The efficacy of RNR inhibitors in vivo was tested using an AAV8 vector that incorporates a Alb/F9 targeting sequence. The “Alb/F9” targeting vector was an AAV that included a donor DNA having a nucleotide sequence of interest flanked by homology arms that facilitated integration of the sequence of interest into the genomic albumin (Alb) locus. The nucleotide sequence of interest in this case was a 2A peptide sequence 5′ of a sequence encoding human coagulation factor IX (hF9). Thus, once integrated into the genomic locus, the 2A peptide sequence was present between the endogenous albumin coding sequence and the introduced/integrated hF9 coding sequence such that expression of hF9 mRNA was under the control of the albumin promoter but translation of the transcript led to two separate proteins (albumin and hF9). […] Thus, the lack of efficacy observed based on hF9 liver expression (see FIG. 5) is likely due to low/substantially no HU in the liver (FIG. 6). Given the in vitro HU results and the in vitro and in vivo fludarabine results—in addition to the gemcitabine results of FIG. 7, it is likely and expected that AAV-based HR is enhanced in vivo by HU in organs/tissues other than the liver (e.g., kidney, spleen, heart, lung, testes, brain, etc.).
B6 mice were received tail vain injections of rAAV8 packaging each vector at the designated dose and were bled at indicated time points. Body weight of mice were measured using Scout pro portable scale (Ohaus) at indicated time points. Serum samples were obtained by centrifuge at 10,000 rpm for 10 minutes and used for ELISA assay of hF9. Hydroxyurea or fludarabine was resuspended in PBS and were injected intraperitoneally with indicated dose/regimen. For BrdU labeling of proliferating mice hepatocytes, BrdU was resuspended in PBS and were intraperitoneally injected for indicated time periods at 200 mg/kg per day for 3 days or 7 days. Diethylnitrosamine solution was prepared using saline and was also intraperitoneally injected for 3 days at 10 or 30 mg/kg. At the end of experiments, mice were anesthetized with isoflurane and perfused transcardially with PBS and then liver tissues were quickly harvested and cut into several pieces. The tissues for mRNA extractions were immediately submerged in RNAlater solution (Sigma) and stored at 4° C. until use. For gDNA or protein extraction, tissues were snap-frozen in liquid nitrogen and stored at −80° C. until use.
(§1) Mice serum samples were used to quantify hF9 protein expression levels. ELISA for hF9 was performed as previously described with the following antibodies: mouse anti-hF9 IgG primary antibody at 1:1,000 (Sigma Cat#F2645), and polyclonal goat anti-hF9 peroxidase-conjugated IgG secondary antibody at 1:4,000 (Enzyme Research Cat#GAFIX-APHRP).

mouse liver = assay: qPCR of liver DNA and mRNA after Alb-P2A-hF9 vector injection
[2] = Body weight of treated mice; conditions: for body weight: mice, drug ip three sequential days plus rAAV8 Alb/F9, relative to controls
Huh7 cells = assay: AAV-HR efficiency, AAV-DJ GAPDH/GFP targeting vector, GFP positive cells by FACS; format: cell-based, human; conditions: for HR efficiency (GFP positive population by FACS analysis) / AAV-HR efficiency (GFP positive fraction): Huh7; for HR efficiency (GFP positive population by FACS analysis): AAV-DJ GAPDH targeting vector; for AAV-HR efficiency (GFP positive fraction): FIG. 7, drug pretreatment 16 hours, washed out, FACS 14 days after infection
hepatocytes of mice = assay: RNAscope in situ hybridization of hF9 mRNA in liver sections; format: in vivo; conditions: vs PBS treated mouse
[3] = test system: Albumin gene locus, mouse hepatocytes; assay: CRISPR/Cas9-mediated gene editing in vivo, SaCas9-sgRNA8 plus rAAV8-Alb-P2A-GFP, GFP staining of liver; conditions: vs PBS, Alb-P2A-GFP 6.0×10^12 or 3.0×10^13 vg/kg, 2 weeks after AAV injection
hepatocytes = assay: BrdU incorporation in mouse liver (hepatocyte proliferation); format: in vivo
murine ApoE locus = assay: In vivo gene targeting with rAAV8-ApoE-P2A-hF9 vector, serum hF9; parameters: species or system mouse; conditions: vs PBS
Description: Serum was collected at various times across a nearly 60-day time course and hF9 protein levels were determined. Error bars represent s.e.; n=4
Also examined was whether fludarabine-mediated enhancement of gene targeting was Albumin specific—this was done by designing a vector targeting an alternative genomic locus, ApoE. ApoE is highly and specifically expressed in hepatocytes, similar to Albumin. When 1.0×10^11 vg/mouse of this vector (ApoE-P2A-hF9) was injected with fludarabine treatment, a significant increase in hF9 expression compared to PBS-injected mice was observed (FIG. 12). The fold-increase (3.6-fold at day 54) was similar to findings targeting the Albumin locus.
as §1

## CCN(CC)N=O [DEN, diethylnitrosamine]
P Ser139 γH2AX; DEN-treated mice, positive control
  γH2AX staining of liver sections (IHC): intense nuclear staining of γH2AX
[1]; DEN 10 mg/kg, not statistically significant
  serum hF9 protein levels: ~1.5 fold
[1]; DEN 30 mg/kg, three weeks post rAAV injection
  serum hF9 protein levels: about 3.6 fold
Mouse liver; DEN 10 or 30 mg/kg, liver
  endogenous albumin mRNA expression: nearly unchanged
Mouse liver; DEN high dose (30 mg/kg), liver, vs vehicle
  total hF9 mRNA expression: 3.9 fold
Mouse liver; DEN low dose (10 mg/kg), liver, vs vehicle
  total hF9 mRNA expression: 2 fold
Mouse liver; DEN, both dose groups, liver, vs vehicle
  on-target HR derived fusion Alb-P2A-hF9 mRNA: about 2 fold
[2]; DEN 10 or 30 mg/kg i.p. once per day for three days, vs vehicle, dose-dependent
  body weight gains: decreased body weight gains

## Nc1nc(F)nc2c1ncn2[C@@H]1O[C@H](CO)[C@@H](O)[C@@H]1O [Fludarabine, (2R,3S,4S,5R)-2-(6-amino-2-fluoropurin-9-yl)-5-(hydroxymethyl)oxolane-3,4-diol]
P Ser139 γH2AX; acute phase of fludarabine treatment
  γH2AX in liver tissue lysates (Western blotting): strong detection of γH2AX
P Ser139 γH2AX; three-day washout after fludarabine, vs immediately proximal to treatment
  γH2AX foci in liver (IHC): significantly reduced
P Ser139 γH2AX; time proximate to fludarabine treatment
  γH2AX foci in liver (IHC): widespread nuclear localized γH2AX foci
[1]; Flu 125 mg/kg i.p. 3 times per day for five days, vs PBS
  serum hF9 levels: 6.4 fold
[1]; fludarabine 125 mg/kg i.p. three times per day on days 28-30 after rAAV, serum day 54
  hF9 expression / gene targeting efficiency with delayed dose: little to no effect; also recorded: failed to increase the efficiency of gene targeting
[1]
  hF9 expression (plasma/serum hF9 levels): increased hF9 expression
[1]; listed as fludarabine
  hF9 expression (plasma/serum hF9 levels): significantly and consistently increased serum hF9 levels
[1]; single administration (1 day) of fludarabine
  serum hF9 levels: about 2 fold
Huh7 cells; FIG. 4, Hun7 cells
  AAV-HR efficiency in cultured cells: significantly enhanced AAV-HR efficiency
Huh7 cells; FIG. 4, vs no RNR inhibitor
  increase in HR efficiency: 3.5 fold
Huh7 cells
  HR efficiency (GFP positive population by FACS analysis): reproducibly increased HR efficiency
Mouse liver; liver mRNA, fludarabine treatment
  endogenous albumin expression: not changed
Mouse liver; liver, vs PBS, normalized to Actb
  on-target integrated Alb-P2A-hF9 fusion mRNA expression: 5.1 fold
Mouse liver; liver, vs controls, vector-internal primer set
  total hF9 mRNA: 4.4 fold
Hepatocytes of mice
  frequency of hF9 mRNA positive cells: increased the number of hF9 positive hepatocytes
Hepatocytes of mice; listed as fludarabine
  frequency of hF9 mRNA positive cells: clearly more frequent
[3]
  number of GFP positive hepatocytes: increased the efficiency of CRISPR/Cas9-mediated gene editing
[3]; listed as fludarabine
  number of GFP positive hepatocytes: increase of the number of GFP positive hepatocytes
hepatocytes; BrdU for three days in washout phase after fludarabine, vs acute phase
  BrdU incorporation in liver: significantly greater
hepatocytes; BrdU given during fludarabine 125 mg/kg three times per day for three days (acute phase)
  BrdU labeled nuclei in liver sections: nearly absent
Murine ApoE locus; ApoE-P2A-hF9 1.0×10^11 vg/mouse, day 54
  fold-increase in hF9 expression: 3.6 fold
Murine ApoE locus; nearly 60-day time course
  efficiency of gene targeting at the ApoE locus (serum hF9): increased the efficiency of gene targeting at the ApoE locus
[2]
  body weight: without any body weight change
[2]; listed as fludarabine
  body weight: without any body weight loss

## Nc1ccn([C@@H]2O[C@H](CO)[C@@H](O)C2(F)F)c(=O)n1 [Gemcitabine]
Huh7 cells
  AAV-HR efficiency (GFP positive fraction): enhanced AAV-HR efficiency
  HR efficiency (GFP positive population by FACS analysis): reproducibly increased HR efficiency

## NC(=O)NO [Hydroxyurea, hydroxyurea]
[1]
  hF9 expression (plasma/serum hF9 levels): did not exhibit enhancement of hF9 expression

## COc1cc([C@@H]2c3cc4c(cc3[C@@H](O[C@@H]3O[C@@H]5CO[C@@H](c6cccs6)O[C@H]5[C@H](O)[C@H]3O)[C@H]3COC(=O)[C@H]23)OCO4)cc(OC)c1O [Teniposide, teniposide]
Huh7 cells
  AAV-HR efficiency (GFP positive fraction): no effect
  HR efficiency (GFP positive population by FACS analysis): no effect
